Test results as given in patent publication US10220051B2, “Combination of DNA repair inhibition with bendamustine or gemcitabine in the treatment of cancer” (Institute for Cancer Research, priority 2012, dated 2019).
“Also recorded” adds a separate entry of the source.

Tests used:
BxPC3 cells [1] = assay: MTS assay, TDG inhibitor combinations, BxPC3; format: cell-based; settings: 10 μM juglone + increasing BDM, 72 and 96 hours
Method: (§1) Two TDG inhibitors, juglone and closantel, were tested for their ability to kill two PaC cell lines, BxPC3 and Panc1 cells, in MTS assays. Cells were treated for 72 and 96 hours with 10 μM juglone and 20 μM closantel, in combination with increasing concentrations of BDM.

SK28 cells [2] = assay: SK28 clonogenic assay; format: cell-based; settings: SK28, concentration-dependent, quadruplicate
Method: (§2) Tests were conducted in quadruplicate.

SK28 cells [3] = assay: SK28 cell viability (MTS assay); format: cell-based; settings: SK28, concentration-dependent, quadruplicate
Method: as §2

BxPC3 cells [4] = assay: xCelligence proliferation assay, BxPC3; format: cell-based; settings: increasing juglone + 45 μM BDM, 24 hours
Method: To independently verify the MTS and clonogenic assays described in the preceding Examples, an assay was conducted using a xCelligence real-time cell analyzer (ACEA Biosciences, Inc.), using a label-free, non-invasive method to monitor adherent cell behavior, including proliferation, spreading and compound-mediated cytotoxicity. The system is based on detecting impedance differences within an electrical circuit created in microelectrodes at the base of culture wells; these differences are converted into a cell index (CI), a value that is influenced by a variety of factors, such as cell number, cell size and cell adhesion. The effect of the TDG inhibitor juglone, in combination with bendamustine (BDM) and gemcitabine (GCB), was assessed on the growth of various cancer cells. BxPC3 cells were treated with 45 μM BDM, in combination with increasing concentrations of juglone, and proliferation was followed over 24 hours.

MCF7 breast cancer cells = assay: Killing by juglone combinations, MCF7; format: cell-based
SK28 melanoma cells = assay: Killing by juglone combinations, SK28; format: cell-based
[5] = system: MCF7 breast cancer cell lines; assay: xCelligence proliferation assay, MCF7; format: cell-based; settings: juglone + BDM
[6] = system: HCT116 colon cancer cells; assay: Killing by juglone combinations, HCT116; format: cell-based
Method: [The source words this procedure for another cell line and reports this cell line under the same test.] as §1

[7] = system: TDG knock-out MEFs transduced with glycosylase-dead human TDG cDNA; assay: Cell cycle FACS after gemcitabine, knock-out MEFs with glycosylase-dead hTDG; format: cell-based, mouse; settings: versus knock-out cells transduced with wild type human TDG cDNA
Method: (§3) The biologic function of TDG includes a non-enzymatic role as transcriptional co-activator, mediated by protein-protein interactions, and an enzymatic role related to its DNA N-glycosylase activity. To determine whether sensitization to gemcitabine was due to inactivation of TDG enzymatic function, TDG knock-out MEFs transduced with wild type or glycosylase-dead human TDG cDNA were evaluated.

[8] = system: TDG knock-out MEFs transduced with wild type human TDG cDNA; assay: Cell cycle FACS after gemcitabine, knock-out MEFs with wild type hTDG; format: cell-based, mouse; settings: knockout MEFs reconstituted with wild type TDG
Method: as §3

[9] = system: TDG knock-out mouse embryo fibroblast lines (MEFs); assay: Cell cycle FACS after gemcitabine, TDG knock-out MEFs; format: cell-based; settings: 50 nM gemcitabine, 48 hours
Method: (§4) DNA content analysis via flow cytometry. Following indicated drug treatments, cells were fixed with 70% ethanol. For analysis, cells were stained with propidium iodide, RNase A and sodium citrate. Cells were incubated at 37° C. for 30 minutes before being analyzed using a Becton Dickinson single laser three-fluorescence FACScan flow analyzer and Cell Quest software (Becton Dickinson). DNA content was acquired from 10,000 events and FlowJo software was used to process the data.
(§5) Isogenic, littermate-derived, thymine DNA glycosylase (TDG) wild type and knock-out mouse embryo fibroblast lines (MEFs) were treated with a sub-lethal dose of 50 nM gemcitabine for 48 hours. At the end of the treatment, cells were collected, stained with propidium iodide and analyzed by flow cytometry.

[10] = system: TDG wild type mouse embryo fibroblast lines (MEFs); assay: Cell cycle FACS after gemcitabine, wild type MEFs; format: cell-based; settings: 50 nM gemcitabine, 48 hours
Method: as §4, §5

[11] = system: BxPC3 pancreatic cancer cells; assay: Clonogenic assay, BxPC3 with or without TDG knockdown; format: cell-based; settings: TDG knockdown (C8) versus pLKO-infected BxPC3
Method: Clonogenic assays were conducted on pancreatic cancer (PaC) cell line BxPC3 infected with empty pLKO vector or with the C8 lentivirus that downregulates TDG. Even in the absence of gemcitabine, colony formation by the TDG knockdown cells was reduced nearly 60% (FIG. 13). In FIG. 10, the maximum number of colonies formed by pLKO-infected BxPC3 cells was set as 100%.

SMILES: O=C1C=CC(=O)c2c(O)cccc21 [juglone, 5-hydroxynaphthoquinone]
- killing effect in combination with BDM (BxPC3 cells [1]): synergistic killing effect
- clonogenic capacity / colony-forming ability (SK28 cells [2]): reduction of SK28 cell viability (MTS assay) and colony-forming ability; also recorded: reduction of clonogenic capacity
- clonogenic capacity / colony-forming ability (SK28 cells [2]; listed as Juglone): reduce cell viability and clonogenic capacity
- cell viability (SK28 cells [3]): reduction of SK28 cell viability
- cell viability (SK28 cells [3]; listed as Juglone): reduce cell viability
- proliferation (normalized cell index) (BxPC3 cells [4]): suppressed proliferation more than juglone alone
- killing effect in combination with BDM (MCF7 breast cancer cells; juglone + BDM): synergistic effect
- killing effect in combination with gemcitabine (MCF7 breast cancer cells; juglone + gemcitabine): synergistic killing
- killing in combination with bendamustine (SK28 melanoma cells; juglone + bendamustine): more effectively killed
- killing in combination with gemcitabine (SK28 melanoma cells; juglone + gemcitabine): more effectively killed
- proliferation (normalized cell index) [5]: A similar result was observed
- killing in combination with bendamustine ([6]; juglone + bendamustine): more effectively killed
- killing in combination with gemcitabine ([6]; juglone + gemcitabine): more effectively killed

SMILES: Nc1ccn([C@@H]2O[C@H](CO)[C@@H](O)C2(F)F)c(=O)n1 [gemcitabine, 2′,2′-difluorodeoxycytidine]
- sensitivity to gemcitabine (flow cytometry) [7]: increased sensitivity
- response to gemcitabine (flow cytometry) [8]: responded the same as wild type MEFs
- cells in S phase [9]: 52.3%
- cells in S phase [10]: 20.7%
- colony formation with increasing gemcitabine [11]: further reduced, and this reduction was greater than pLKO-infected cells expressing TDG
